Measured values published in patent US11041000B2, “Peptide inhibitors of interleukin-23 receptor and their use to treat inflammatory diseases” (priority 2019, dated 2021).

Legend:
Type in all cases: in vitro ADME
[1] = Stability in simulated intestinal fluid (SIF); conditions: simulated intestinal fluid with pancreatin, pH 6.8, 37° C., matrix is 100 fold dilution of standard SIF concentration; for SIF t½: 20 μM
Description: SIF was prepared by adding 6.8 g of monobasic potassium phosphate and 10.0 g of pancreatin to 1.0 L of water. After dissolution, the pH was adjusted to 6.8 using NaOH. DMSO stocks (2 mM) were first prepared for the test compounds. Aliquots of the DMSO solutions were dosed into 6 individual tubes, each containing 0.5 mL of SIF, which is pre-warmed to 37° C. The final test compound concentration was 20 μM. The vials were kept in a benchtop Thermomixer® for the duration of the experiment. At each timepoint (0, 5, 10, 20, 40, 60, or 360 minutes or 24 hours), 1.0 mL of acetonitrile containing 1% formic acid was added to one vial to terminate the reaction. Samples were stored at 4° C. until the end of the experiment. After the final timepoint is sampled, the tubes were mixed and then centrifuged at 3,000 rpm for 10 minutes. Aliquots of the supernatant were removed, diluted 1:1 into distilled water containing internal standard, and analyzed by LCMS/MS. Percent remaining at each timepoint was calculated based on the peak area response ratio of test to compound to internal standard. Time 0 was set to 100%, and all later timepoints were calculated relative to time 0. Half-lives were calculated by fitting to a first-order exponential decay equation using Graphpad.

Stability in rat plasma = conditions: both sexes, SD rat plasma, EDTA, 37° C., read-out: t½: Rat Plasma EDTA (converted)
Description: Peptides of interest (20 μM) were incubated with pre-warmed rat plasma (SD rat, mixed gender pooled, EDTA, filtered through 0.22 μm, BioreclamationIVT) at 37° C. […] Quenched samples were stored at 4° C. until the end of the experiment and centrifuged at 4,000 rpm for 10 minutes. The supernatant were diluted 1:1 with deionized water and analyzed using LC-MS. Percentage remaining at each time point was calculated based on the peak area ratio (analyte over internal standard) relative to the initial level at time zero. Half-lives were calculated by fitting to a first-order exponential decay equation using GraphPad.

[2] = Stability in cynomolgus monkey fecal homogenate; conditions: 20% fecal homogenate (supernatant), pH 6.8, 20% cynomolgus monkey fecal homogenate, anaerobic, 37° C., read-out: t½: Monkey Feces anaerobic (converted)
Description: (§1) Centrifuged the homogenate at 2800×g for 15 min. The supernatant is taken out and used for incubations. […] The final test compound concentration was 20 μM.

[3] = Stability in human fecal homogenate; conditions: 20% fecal homogenate (supernatant), pH 6.8, 20% human fecal homogenate, anaerobic, 37° C., read-out: t½: Human Feces anaerobic (converted)
Description: as §1

For CC(=O)NCCCC[C@H](NC(=O)[C@](C)(CCCCN)NC(=O)[C@H](Cc1ccc2ccccc2c1)NC(=O)[C@H](Cc1ccc(OCCN)cc1)NC(=O)[C@H]1NC(=O)[C@H](CCC(N)=O)NC(=O)[C@H](Cc2c[nH]c3ccc(C#N)cc23)NC(=O)[C@H]([C@@H](C)O)NC(=O)[C@H](CC(N)=O)NC(=O)[C@@H](NC(C)=O)C(C)(C)SSC1(C)C)C(=O)N[C@@H](CC(N)=O)C(=O)N[C@H](CCCCN)C(N)=O [compound 296], the “SIF t½” value [1] was 24 h, the half-life at 20 μM (Stability in rat plasma) was > 24 h and the half-life at 20 μM [2] was > 24 h. The half-life at 20 μM [3] was > 24 h.
In the case of COc1cccc2c(C[C@@H]3NC(=O)[C@H]([C@@H](C)O)NC(=O)[C@H](CC(N)=O)NC(=O)[C@@H](NC(C)=O)C(C)(C)SSC(C)(C)[C@@H](C(=O)N[C@@H](Cc4ccc(OCCN)cc4)C(=O)N[C@@H](Cc4ccc5ccccc5c4)C(=O)N[C@@](C)(CCCCN)C(=O)N[C@@H](CCCCNC(C)=O)C(=O)N[C@@H](CC(N)=O)C(=O)N[C@H](CCCCN)C(N)=O)NC(=O)[C@H](CCC(N)=O)NC3=O)c[nH]c12 [compound 297], the “SIF t½” value [1] is reported as 24 h, the half-life at 20 μM (Stability in rat plasma) is reported as > 24 h and the half-life at 20 μM [2] is reported as > 24 h. For the same compound, the half-life at 20 μM [3] was > 24 h.
With COc1cccc2c(C[C@@H]3NC(=O)[C@H]([C@@H](C)O)NC(=O)[C@H](CC(N)=O)NC(=O)[C@@H](NC(C)=O)C(C)(C)SSC(C)(C)[C@@H](C(=O)N[C@@H](Cc4ccc(OCCN)cc4)C(=O)N[C@@H](Cc4ccc5ccccc5c4)C(=O)N[C@@](C)(CCCCN)C(=O)N[C@@H](CCCCNC(C)=O)C(=O)N[C@@H](CC(N)=O)C(=O)N[C@H](CCCCN)C(N)=O)NC(=O)[C@H](CCCCNC(C)=O)NC3=O)c[nH]c12 [compound 299] the “SIF t½” value [1] was 24 h, the half-life at 20 μM (Stability in rat plasma) was > 24 h and the half-life at 20 μM [2] was > 24 h. For the same compound, the half-life at 20 μM [3] was > 24 h.
With CC(=O)NCCCC[C@H](NC(=O)[C@](C)(CCCCN)NC(=O)[C@H](Cc1ccc2ccccc2c1)NC(=O)[C@H](Cc1ccc(OCCN)cc1)NC(=O)[C@H]1NC(=O)[C@H](CCCCNC(=O)[C@H](C)N)NC(=O)[C@H](Cc2c[nH]c3c(C)cccc23)NC(=O)[C@H]([C@@H](C)O)NC(=O)[C@H](CC(N)=O)NC(=O)[C@@H](NC(C)=O)C(C)(C)SSC1(C)C)C(=O)N[C@@H](CC(N)=O)C(=O)N[C@H](CC(C)C)C(N)=O [compound 314] the “SIF t½” value [1] was 24 h, the half-life at 20 μM (Stability in rat plasma) was > 24 h and the half-life at 20 μM [2] was > 24 h. The half-life at 20 μM [3] was > 24 h.
In the case of CC(=O)NCCCC[C@H](NC(=O)[C@](C)(CCCCN)NC(=O)[C@H](Cc1ccc2ccccc2c1)NC(=O)[C@H](Cc1ccc(OCCN)cc1)NC(=O)[C@H]1NC(=O)[C@H](CCCCNC(=O)CC(C)C)NC(=O)[C@H](Cc2c[nH]c3c(C)cccc23)NC(=O)[C@H]([C@@H](C)O)NC(=O)[C@H](CC(N)=O)NC(=O)[C@@H](NC(C)=O)C(C)(C)SSC1(C)C)C(=O)N[C@@H](CC(N)=O)C(=O)N[C@H](CC(C)C)C(N)=O [compound 315], the “SIF t½” value [1] is reported as 24 h, the half-life at 20 μM (Stability in rat plasma) is reported as > 24 h and the half-life at 20 μM [2] is reported as > 24 h. For the same compound, the half-life at 20 μM [3] was > 24 h.
With CC(=O)NCCCC[C@H](NC(=O)[C@](C)(CCCCN)NC(=O)[C@H](Cc1ccc2ccccc2c1)NC(=O)[C@H](Cc1ccc(OCCN)cc1)NC(=O)[C@H]1NC(=O)[C@H](CCCCNC(=O)CN)NC(=O)[C@H](Cc2c[nH]c3c(C)cccc23)NC(=O)[C@H]([C@@H](C)O)NC(=O)[C@H](CC(N)=O)NC(=O)[C@@H](NC(C)=O)C(C)(C)SSC1(C)C)C(=O)N[C@@H](CC(N)=O)C(=O)N[C@H](CC(C)C)C(N)=O [compound 320] the half-life at 20 μM ([1]; read-out: SIF t½ (converted)) was 21 h, the half-life at 20 μM (Stability in rat plasma) was > 24 h and the half-life at 20 μM [2] was 15 h. The half-life at 20 μM [3] was > 24 h.
With CC(=O)NCCCC[C@H](NC(=O)[C@](C)(CCCCN)NC(=O)[C@H](Cc1ccc2ccccc2c1)NC(=O)[C@H](Cc1ccc(OCCN)cc1)NC(=O)[C@H]1NC(=O)[C@H](CCCCNC(=O)CCN)NC(=O)[C@H](Cc2c[nH]c3c(C)cccc23)NC(=O)[C@H]([C@@H](C)O)NC(=O)[C@H](CC(N)=O)NC(=O)[C@@H](NC(C)=O)C(C)(C)SSC1(C)C)C(=O)N[C@@H](CC(N)=O)C(=O)N[C@H](CC(C)C)C(N)=O [compound 321] the “SIF t½” value [1] was 24 h, the half-life at 20 μM (Stability in rat plasma) was > 24 h and the half-life at 20 μM [2] was > 24 h. The half-life at 20 μM [3] was > 24 h.
